{"source": "patent US10351914B2", "about": "“Biomarkers for Pin1-associated disorders” (Beth Israel Deaconess Medical Center, Inc., priority 2014, dated 2019)", "key": {"[1]": {"system": "Pin1 acetylation", "assay": "Pin1 acetylation in cells (Co-IP with anti-Flag antibody, immunoblotting with anti-acetyl lysine antibody)", "format": "cell-based", "excerpt": "FIG. 1 depicts HTS results for glucose starvation induced Pin1 deacetylation in cells 100. Different stress tests, such as heat shock, ultraviolet radiation, and glucose starvation (Glu^−), may produce an extracellular stimulus that could transform one or more cellular responses related to cell growth, differentiation, activation of transcript factors, glucose metabolism, control of proteins synthesis, and regulation of cell cycle. Among these stresses testes, glucose starvation (Glu^−), may reduce Pin1 acetylation without affecting its protein expression (FIG. 1 A). […] Protein acetylation may be catalytically modulated by a particular pair of histone acetyl transferase (HAT) and histone deacetylase (HDAC) (Yang and Seto, 2007). To identify the HAT and HDAC that modulates Pin1 acetylation, Flag-tagged Pin1 was expressed with several HATs including p300, CBP or GCN5 in cells, followed by co-immunoprecipitation (Co-IP) with anti-Flag antibody and immunoblotting with anti-acetyl lysine antibody. […] Moreover, Pin1 Co-IPed with p300, supporting that p300 is a HAT for Pin1. For the corresponding HDAC, various HDAC inhibitors targeting different HDAC categories were used, including Trichostatin A (TSA) and MS-275 for class I and II HDACs as well as Nicotinamide (NAM) and Splitomicin (Splito) for class III HDACs."}, "[2]": {"system": "Pin1 and SIRT1 interaction", "assay": "Pin1 and SIRT1 interaction by Co-IP and co-immunostaining", "format": "cell-based", "conditions": "Co-IP (FIG. 1 K) and co-immunostaining (FIG. 1 L)", "excerpt": "Out of the seven Sirtuin family members, SIRT1, 2, 6, and 7 associated with Pin1 as shown by Co-IP and GST pull-down (FIG. 1 F). However, only SIRT1 reduced Pin1 acetylation (FIG. 1 G). Furthermore, overexpression of wild-type (WT), but not its catalytic dead (H363Y) mutant, induced Pin1 deacetylation in cells (FIG. 1 H). […] In addition, since other studies have shown that glucose starvation activates SIRT1 activity, an investigation was made to know whether glucose starvation-induced Pin1 deacetylation is mediated by SIRT1."}, "[3]": {"conditions": "HDAC inhibitors in cells, FIG. 1 E"}}, "data": [{"smiles": "O=CC[C@@H](O)[C@H](O)[C@H](O)CO", "note": "[2-DG, 2-deoxyglucose]", "values": [{"measurement": "effect on Pin1 acetylation", "setting": "[1]; mimicking glucose starvation, FIG. 1 B", "value": "reduction in Pin1 acetylation in a time- or dose-dependent manner"}, {"measurement": "Pin1 binding with SIRT1", "setting": "[2]", "value": "increased binding with SIRT1"}]}, {"smiles": "O=C1CCc2c(ccc3ccccc23)O1", "note": "[Splito, Splitomicin]", "values": [{"measurement": "effect on Pin1 acetylation", "setting": "[1]; [3]", "value": "increased Pin1 acetylation"}]}, {"smiles": "NC(=O)c1cccnc1", "note": "[NAM, Nicotinamide]", "values": [{"measurement": "effect on Pin1 acetylation", "setting": "[1]; [3]", "value": "increased Pin1 acetylation"}]}, {"smiles": "CCCCCCCCCCCCCCCc1cccc(O)c1C(=O)O", "note": "[Anacardic acid]", "values": [{"measurement": "effect on p300-increased Pin1 acetylation (Acetyl-Pin1)", "setting": "[1]; cells overexpressing p300 with Flag-Pin1, FIG. 1 D", "value": "reversed"}]}]}
